Values quoted from earlier work, collected in patent US8604163B2, “EEF2K assays for identifying compounds that inhibit EEF2K activity” (University of Medicine and Dentistry of New Jersey, priority 2009, dated 2013).

System: glioma cell lines
Conditions: by inhibiting eEF2-K; Parmer et al. 1997

Compound: CC(=O)c1c(O)c(C)c(O)c(Cc2c(O)c3c(c(C(=O)/C=C/c4ccccc4)c2O)OC(C)(C)C=C3)c1O [rottlerin]
- growth of glioma cell lines: inhibit growth of glioma cell lines
